# Measured values taken from patent EP4748847A1, “PEPTIDE COMPLEX HAVING VEGFR -2 AGONIST ACTIVITY” (Peptidream Inc, priority 2023, dated 2025).
# *1 amine or outer side, *2 acyl side, *3 side chain or, on linkers, in order; H or OH if unused. Where a SMILES comes first, the peptide text is derived from it. Bridges are numbered along the chain shown (N, C = ends). Roman numbers before positions name the chains, in order. [ ]: non-standard residue; d: D form. The star is where a group is joined. CO(CH2)2(OCH2CH2)17CO = O=C(CCOCCOCCOCCOCCOCCOCCOCCOCCOCCOCCOCCOCCOCCOCCOCCOCCOCCC(=O)[*:2])[*:1]; X2 = O=C(OCCOCCOCCOCCOCCOCCOCCOCCOCCOCCOCCOCCOC(=O)[*:2])[*:1]; PEG12 = NCCOCCOCCOCCOCCOCCOCCOCCOCCOCCOCCOCCOCCC(=O)O; Phe(4-guanidino) = N=C(N)Nc1ccc(C[C@H](N)C(=O)O)cc1; hTyr = N[C@@H](CCc1ccc(O)cc1)C(=O)O; h4Pal = N[C@@H](CCc1ccncc1)C(=O)O; tBuAla = CC(C)(C)C[C@H](N)C(=O)O; Tle = CC(C)(C)[C@H](N)C(=O)O; Carboxymethyl = O=C(O)C*
# Biological target: T1, VEGFR-2 (Homo sapiens, UniProt P35968)
# T1 construct: endogenous in cells; host or cells: HUVEC
# Test: pVEGFR AlphaLISA assay (VEGFR-2 phosphorylation, p-Tyr1175) in HUVECs
# Type: cell-based
# Conditions: 10 minutes stimulation, % activity, maximum VEGF165a signal = 100%, unstimulated = 0%
# Description: To evaluate the VEGFR-2 activation ability of the VEGFR-2 agonist peptides of the present invention, VEGFR-2 phosphorylation was verified. HUVECs were cultured using EGM™ -2 Endothelial Cell Growth Medium-2 BulletKit (LONZA; CC-3162). After detaching cells using Tryple (Thermo Fisher Scientific), they were seeded into a 96-well PDL-coated plate (Corning: 354461) at a density of 24,000 cells per well and cultured for 2 days. For starvation, the medium was replaced with EBM-2 medium (LONZA) containing 0.5% FBS (Thermo Fisher Scientific), 0.1% heparin (included with the above LONZA CC-3162), and 0.1% gentamicin (Nacalai), and the cells were cultured for 18 hours. Subsequently, Recombinant Human VEGF165a Protein (R&D Systems) or the peptide was added, and the cells were cultured in a CO2 incubator at 37°C. After 10 minutes of stimulation, cells were lysed using the Lysis Buffer included in the AlphaLISA SureFire Ultra VEGFR-2 (p-Tyr1175) Assay Kit (PerkinElmer) to lyse the cells. The procedure was performed according to the kit protocol, and signal detection was performed using a SpectraMax Paradigm multimode microplate reader (Molecular Devices). The obtained signals were analyzed using GraphPad Prism, and % activity was calculated with the maximum signal induced by VEGF165a set as 100% and the unstimulated control as 0%.
# The VEGF165a concentration was evaluated at five points (0.08, 0.31, 1.25, 5, 20 nM) using 1/4-fold dilutions starting from 20 nM to determine the maximum value (100%). Peptide concentrations tested were: 3.2, 16, 80 nM for dimer structure number 1; 10, 100 nM for dimer structures numbers 2-41; and 1.25, 5, 20 nM for dimer structures numbers 42-57. […]
# Peptides showing 50% or more activity at 10 nM were designated 2-A, those showing 50% or more activity at 100 nM were designated 2-B, and those showing 1% or more but less than 50% activity at 100 nM were designated 2-C.
# Peptides showing 50% or more activity at 1.25 nM were designated 3-A, those showing 50% or more activity at 5 nM were designated 3-B, those showing 50% or more activity at 20 nM were designated 3-C, and those showing 1% or more but less than 50% activity at 20 nM were designated 3-D.
# [1] = peptide 10, 100 nM (dimer structures 2-41)
# T1 sequence (P35968 20-1356): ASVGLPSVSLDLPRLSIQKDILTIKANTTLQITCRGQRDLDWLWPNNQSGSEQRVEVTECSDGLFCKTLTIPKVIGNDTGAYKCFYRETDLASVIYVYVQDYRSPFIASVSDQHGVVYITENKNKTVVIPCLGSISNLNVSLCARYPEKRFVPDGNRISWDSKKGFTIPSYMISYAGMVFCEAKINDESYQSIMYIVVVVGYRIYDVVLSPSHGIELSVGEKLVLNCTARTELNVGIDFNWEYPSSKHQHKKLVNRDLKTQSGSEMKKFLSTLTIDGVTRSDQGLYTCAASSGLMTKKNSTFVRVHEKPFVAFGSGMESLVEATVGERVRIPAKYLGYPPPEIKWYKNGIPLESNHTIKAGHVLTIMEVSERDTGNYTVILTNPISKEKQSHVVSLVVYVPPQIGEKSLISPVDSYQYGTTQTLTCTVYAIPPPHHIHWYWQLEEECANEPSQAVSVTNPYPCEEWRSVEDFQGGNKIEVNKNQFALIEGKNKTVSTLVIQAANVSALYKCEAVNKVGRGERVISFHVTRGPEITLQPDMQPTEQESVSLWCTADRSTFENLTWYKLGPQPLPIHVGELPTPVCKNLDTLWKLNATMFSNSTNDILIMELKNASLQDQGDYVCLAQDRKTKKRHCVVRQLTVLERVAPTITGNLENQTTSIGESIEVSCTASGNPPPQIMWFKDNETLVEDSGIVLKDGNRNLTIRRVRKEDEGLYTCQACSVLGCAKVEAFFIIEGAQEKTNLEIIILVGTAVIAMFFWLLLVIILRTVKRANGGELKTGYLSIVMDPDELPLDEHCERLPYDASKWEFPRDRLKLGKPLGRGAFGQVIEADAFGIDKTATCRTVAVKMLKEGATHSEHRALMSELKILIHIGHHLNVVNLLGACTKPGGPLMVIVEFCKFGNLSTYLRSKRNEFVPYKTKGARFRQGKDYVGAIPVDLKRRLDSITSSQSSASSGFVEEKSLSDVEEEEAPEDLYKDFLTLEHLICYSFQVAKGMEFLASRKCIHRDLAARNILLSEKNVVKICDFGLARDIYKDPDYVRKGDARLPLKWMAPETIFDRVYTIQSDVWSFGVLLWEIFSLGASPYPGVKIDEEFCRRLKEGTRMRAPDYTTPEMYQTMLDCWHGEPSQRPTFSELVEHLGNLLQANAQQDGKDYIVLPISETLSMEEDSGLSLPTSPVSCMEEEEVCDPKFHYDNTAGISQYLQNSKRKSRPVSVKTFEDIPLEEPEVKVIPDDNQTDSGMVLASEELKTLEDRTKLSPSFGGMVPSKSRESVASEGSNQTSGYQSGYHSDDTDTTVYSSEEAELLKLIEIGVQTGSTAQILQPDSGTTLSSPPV
SMILES,pVEGFR2 Assay Results [1],"pVEGFR2 Assay Results (peptide 1.25, 5, 20 nM (dimer structures 42-57))"
"CC(C)C[C@@H]1NC(=O)[C@H](CC(=O)O)NC(=O)[C@H](CC(=O)O)NC(=O)[C@H](CCCCNC(=O)CCOCCOCCOCCOCCOCCOCCOCCOCCOCCOCCOCCOCCOCCOCCOCCOCCOCCC(=O)NCCCC[C@@H]2NC(=O)[C@H](C(C)C)NC(=O)[C@H](CCC(N)=O)NC(=O)[C@H](C(C)(C)C)NC(=O)[C@H](Cc3c[nH]c4ccccc34)NC(=O)[C@H](Cc3c[nH]c4ccccc34)NC(=O)CSC[C@@H](C(=O)NCC(N)=O)NC(=O)[C@H](CC(=O)O)NC(=O)[C@H](CCc3ccc(O)cc3)NC(=O)[C@H](Cc3ccccc3)NC(=O)[C@H](Cc3ccc(O)cc3)NC(=O)[C@H](CC(C)C)NC(=O)[C@H](CC(=O)O)NC(=O)[C@H](CC(=O)O)NC2=O)NC(=O)[C@H](C(C)C)NC(=O)[C@H](CCC(N)=O)NC(=O)[C@H](C(C)(C)C)NC(=O)[C@H](Cc2c[nH]c3ccccc23)NC(=O)[C@H](Cc2c[nH]c3ccccc23)NC(=O)CSC[C@@H](C(=O)NCC(N)=O)NC(=O)[C@H](CC(=O)O)NC(=O)[C@H](CCc2ccc(O)cc2)NC(=O)[C@H](Cc2ccccc2)NC(=O)[C@H](Cc2ccc(O)cc2)NC1=O [compound 26] (I: {CH2CO}-WW[Tle]QVKDDLYF[hTyr]DCG-NH2 / II: {CH2CO}-WW[Tle]QVKDDLYF[hTyr]DCG-NH2; linker I:6-II:6 via CO(CH2)2(OCH2CH2)17CO; thioether I:N-I:14, II:N-II:14)",2-B (50% or more activity at 100 nM),–
"CC(C)C[C@@H]1NC(=O)[C@H](CC(=O)O)NC(=O)[C@H](CC(=O)O)NC(=O)[C@H](CCCCNC(=O)CCOCCOCCOCCOCCOCCOCCOCCOCCOCCOCCOCCOCCOCCOCCOCCOCCOCCC(=O)NCCCC[C@@H]2NC(=O)[C@H](C(C)C)NC(=O)[C@H](CC(=O)O)NC(=O)[C@H](C(C)(C)C)NC(=O)[C@H](Cc3c[nH]c4ccccc34)NC(=O)[C@H](Cc3ccc(OCC(=O)O)cc3)NC(=O)CSC[C@@H](C(=O)NCC(N)=O)NC(=O)[C@H](CC(=O)O)NC(=O)[C@H](CCc3ccc(O)cc3)NC(=O)[C@H](Cc3ccccc3)NC(=O)[C@H](Cc3ccc(O)cc3)NC(=O)[C@H](CC(C)C)NC(=O)[C@H](CC(=O)O)NC(=O)[C@H](CC(=O)O)NC2=O)NC(=O)[C@H](C(C)C)NC(=O)[C@H](CC(=O)O)NC(=O)[C@H](C(C)(C)C)NC(=O)[C@H](Cc2c[nH]c3ccccc23)NC(=O)[C@H](Cc2ccc(OCC(=O)O)cc2)NC(=O)CSC[C@@H](C(=O)NCC(N)=O)NC(=O)[C@H](CC(=O)O)NC(=O)[C@H](CCc2ccc(O)cc2)NC(=O)[C@H](Cc2ccccc2)NC(=O)[C@H](Cc2ccc(O)cc2)NC1=O [compound 24] (I: {CH2CO}-Y(Carboxymethyl)W[Tle]DVKDDLYF[hTyr]DCG-NH2 / II: {CH2CO}-Y(Carboxymethyl)W[Tle]DVKDDLYF[hTyr]DCG-NH2; linker I:6-II:6 via CO(CH2)2(OCH2CH2)17CO; thioether I:N-I:14, II:N-II:14)",2-B (50% or more activity at 100 nM),–
"CC(C)[C@@H]1NC(=O)[C@H](CC(=O)O)NC(=O)[C@H](CCc2ccc(O)cc2)NC(=O)[C@H](Cc2c[nH]c3ccccc23)NC(=O)[C@H](Cc2c[nH]c3ccccc23)NC(=O)CSC[C@@H](C(=O)NCC(N)=O)NC(=O)[C@H](CC(=O)O)NC(=O)[C@H](CCc2ccc(O)cc2)NC(=O)[C@H](Cc2ccc(NC(=N)N)cc2)NC(=O)[C@H](Cc2ccc(O)cc2)NC(=O)[C@H](CC(C)(C)C)NC(=O)[C@H](CC(=O)O)NC(=O)[C@H](CC(=O)O)NC(=O)[C@H](CCCCNC(=O)OCCOCCOCCOCCOCCOCCOCCOCCOCCOCCOCCOCCOC(=O)NCCCC[C@@H]2NC(=O)[C@H](C(C)C)NC(=O)[C@H](CC(=O)O)NC(=O)[C@H](CCc3ccc(O)cc3)NC(=O)[C@H](Cc3c[nH]c4ccccc34)NC(=O)[C@H](Cc3c[nH]c4ccccc34)NC(=O)CSC[C@@H](C(=O)NCC(N)=O)NC(=O)[C@H](CC(=O)O)NC(=O)[C@H](CCc3ccc(O)cc3)NC(=O)[C@H](Cc3ccc(NC(=N)N)cc3)NC(=O)[C@H](Cc3ccc(O)cc3)NC(=O)[C@H](CC(C)(C)C)NC(=O)[C@H](CC(=O)O)NC(=O)[C@H](CC(=O)O)NC2=O)NC1=O [compound 57] (I: {CH2CO}-WW[hTyr]DVKDD[tBuAla]Y[Phe(4-guanidino)][hTyr]DCG-NH2 / II: {CH2CO}-WW[hTyr]DVKDD[tBuAla]Y[Phe(4-guanidino)][hTyr]DCG-NH2; linker I:6-II:6 via X2; thioether I:N-I:14, II:N-II:14)",–,3-D (1% or more but less than 50% activity at 20 nM)
"CC(C)C[C@@H]1NC(=O)[C@H](CC(=O)O)NC(=O)[C@H](CC(=O)O)NC(=O)[C@H](CCCCNC(=O)CCOCCOCCOCCOCCOCCOCCOCCOCCOCCOCCOCCOCCOCCOCCOCCOCCOCCC(=O)NCCCC[C@@H]2NC(=O)[C@H](C(C)C)NC(=O)[C@H](CC(=O)O)NC(=O)[C@H](C(C)(C)C)NC(=O)[C@H](Cc3c[nH]c4ccccc34)NC(=O)[C@H](Cc3c[nH]c4ccccc34)NC(=O)CSC[C@@H](C(=O)NCC(N)=O)NC(=O)[C@H](CC(=O)O)NC(=O)[C@H](CCc3ccncc3)NC(=O)[C@H](Cc3ccccc3)NC(=O)[C@H](Cc3ccc(O)cc3)NC(=O)[C@H](CC(C)C)NC(=O)[C@H](CC(=O)O)NC(=O)[C@H](CC(=O)O)NC2=O)NC(=O)[C@H](C(C)C)NC(=O)[C@H](CC(=O)O)NC(=O)[C@H](C(C)(C)C)NC(=O)[C@H](Cc2c[nH]c3ccccc23)NC(=O)[C@H](Cc2c[nH]c3ccccc23)NC(=O)CSC[C@@H](C(=O)NCC(N)=O)NC(=O)[C@H](CC(=O)O)NC(=O)[C@H](CCc2ccncc2)NC(=O)[C@H](Cc2ccccc2)NC(=O)[C@H](Cc2ccc(O)cc2)NC1=O [compound 32] (I: {CH2CO}-WW[Tle]DVKDDLYF[h4Pal]DCG-NH2 / II: {CH2CO}-WW[Tle]DVKDDLYF[h4Pal]DCG-NH2; linker I:6-II:6 via CO(CH2)2(OCH2CH2)17CO; thioether I:N-I:14, II:N-II:14)",2-A (50% or more activity at 10 nM),–
"CC(C)C[C@@H]1NC(=O)[C@H](CC(=O)O)NC(=O)[C@H](CC(=O)O)NC(=O)[C@H](CCC(N)=O)NC(=O)[C@H](C(C)C)NC(=O)[C@H](CC(=O)O)NC(=O)[C@H](C(C)C)NC(=O)[C@H](Cc2c[nH]c3ccccc23)NC(=O)[C@H](Cc2c[nH]c3ccccc23)NC(=O)CSC[C@@H](C(=O)NCC(=O)NCCOCCOCCOCCOCCOCCOCCOCCOCCOCCOCCOCCOCCC(=O)NCCCC[C@H](NC(=O)CCOCCOCCOCCOCCOCCOCCOCCOCCOCCOCCOCCOCCNC(=O)CNC(=O)[C@@H]2CSCC(=O)N[C@@H](Cc3c[nH]c4ccccc34)C(=O)N[C@@H](Cc3c[nH]c4ccccc34)C(=O)N[C@@H](C(C)C)C(=O)N[C@@H](CC(=O)O)C(=O)N[C@@H](C(C)C)C(=O)N[C@@H](CCC(N)=O)C(=O)N[C@@H](CC(=O)O)C(=O)N[C@@H](CC(=O)O)C(=O)N[C@@H](CC(C)C)C(=O)N[C@@H](Cc3ccc(O)cc3)C(=O)N[C@@H](Cc3ccccc3)C(=O)N[C@@H](C(C)C)C(=O)N[C@@H](CO)C(=O)N2)C(N)=O)NC(=O)[C@H](CO)NC(=O)[C@H](C(C)C)NC(=O)[C@H](Cc2ccccc2)NC(=O)[C@H](Cc2ccc(O)cc2)NC1=O [compound 11] (I: {CH2CO}-WWVDVQDDLYFVSCG[PEG12]K-NH2 / II: {CH2CO}-WWVDVQDDLYFVSCG[PEG12]; amide I:17-II:C; thioether I:N-I:14, II:N-II:14)",2-C (1% or more but less than 50% activity at 100 nM),–
